Results as given in ChEMBL document CHEMBL1201862, “PubChem BioAssay data set” (2004).
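Following 48 hours of exposure in 96-well plates, responses at five concentrations were used to interpolate endpoints linearly. GI50 marks 50% less growth.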 The source made the active and inactive calls. Rule as the data show it: active = GI50 up to about 1.1 µM and inactive = higher.

Legend:
Test in all cases: inhibition of tumour cell growth, NCI panel, 48 h
CAKI-1 = system: CAKI-1
SK-MEL-28 = system: SK-MEL-28
DU-145 = system: DU-145
HT-29 = system: HT-29
UO-31 = system: UO-31
SR = system: SR
EKVX = system: EKVX
786-0 = system: 786-0
SW-620 = system: SW-620
KM12 = system: KM12
UACC-62 = system: UACC-62
PC-3 = system: PC-3
OVCAR-4 = system: OVCAR-4
Hs-578T = system: Hs-578T
NCI-H23 = system: NCI-H23
HCT-15 = system: HCT-15
SK-MEL-2 = system: SK-MEL-2
HCC 2998 = system: HCC 2998
COLO 205 = system: COLO 205
M14 = system: M14
OVCAR-8 = system: OVCAR-8
SN12C = system: SN12C
K562 = system: K562
TK-10 = system: TK-10
NCI-H226 = system: NCI-H226
MOLT-4 = system: MOLT-4
U-251 = system: U-251
MDA-MB-231 = system: MDA-MB-231
HOP-62 = system: HOP-62
HCT-116 = system: HCT-116
SK-MEL-5 = system: SK-MEL-5
HOP-92 = system: HOP-92
BT-549 = system: BT-549
Malme-3M = system: Malme-3M
RXF 393 = system: RXF 393
A498 = system: A498
T47D = system: T47D
OVCAR-5 = system: OVCAR-5
MDA-N = system: MDA-N
SF-539 = system: SF-539
HL-60 = system: HL-60
A549 = system: A549
LOX IMVI = system: LOX IMVI
MCF7 = system: MCF7
MDA-MB-435 = system: MDA-MB-435
SF-295 = system: SF-295
OVCAR-3 = system: OVCAR-3
IGROV-1 = system: IGROV-1
SF-268 = system: SF-268
SK-OV-3 = system: SK-OV-3
NCI-H522 = system: NCI-H522
CCRF-CEM = system: CCRF-CEM
SNB-75 = system: SNB-75
SNB-19 = system: SNB-19
UACC-257 = system: UACC-257
RPMI-8226 = system: RPMI-8226
ACHN = system: ACHN
NCI-H460 = system: NCI-H460
NCI/ADR-RES = system: NCI/ADR-RES

**Q.** `O=C(Oc1ccccc1)c1cc2cc(CCl)ccc2oc1=O` was tested. Which GI50 (CAKI-1) did it give?
**A.** 14.5 µM (inactive)

**Q.** And the GI50 (SK-MEL-28)?
**A.** 13.3 µM (inactive)

**Q.** What about the GI50 (DU-145) of the same compound?
**A.** 27.7 µM (inactive)

**Q.** And the GI50 (HT-29)?
**A.** 24.4 µM (inactive)

**Q.** What about the GI50 (UO-31) of the same compound?
**A.** 20.4 µM (inactive)

**Q.** And the GI50 (SR)?
**A.** 28.1 µM (inactive)

**Q.** What about the GI50 (EKVX) of the same compound?
**A.** 17.6 µM (inactive)

**Q.** And the GI50 (786-0)?
**A.** 19.4 µM (inactive)

**Q.** What about the GI50 (SW-620) of the same compound?
**A.** 61.9 µM (inactive)

**Q.** What about the GI50 (KM12) of the same compound?
**A.** 63.4 µM (inactive)

**Q.** What about the GI50 (UACC-62) of the same compound?
**A.** 13.4 µM (inactive)

**Q.** And the GI50 (PC-3)?
**A.** 14.2 µM (inactive)

**Q.** What about the GI50 (OVCAR-4) of the same compound?
**A.** 24.8 µM (inactive)

**Q.** What about the GI50 (Hs-578T) of the same compound?
**A.** 16.9 µM (inactive)

**Q.** And the GI50 (NCI-H23)?
**A.** 15.5 µM (inactive)

**Q.** And the GI50 (HCT-15)?
**A.** 31.5 µM

**Q.** What about the GI50 (SK-MEL-2) of the same compound?
**A.** 3.17 µM (inactive)

**Q.** What about the GI50 (HCC 2998) of the same compound?
**A.** 20.5 µM (inactive)

**Q.** And the GI50 (COLO 205)?
**A.** 17.8 µM (inactive)

**Q.** And the GI50 (M14)?
**A.** 13.1 µM (inactive)

**Q.** And the GI50 (OVCAR-8)?
**A.** 47.2 µM (inactive)

**Q.** And the GI50 (SN12C)?
**A.** 23.1 µM (inactive)

**Q.** And the GI50 (K562)?
**A.** 5.61 µM (inactive)

**Q.** What about the GI50 (TK-10) of the same compound?
**A.** 17.5 µM (inactive)

**Q.** What about the GI50 (NCI-H226) of the same compound?
**A.** > 100 µM (inactive)

**Q.** And the GI50 (MOLT-4)?
**A.** 18.8 µM (inactive)

**Q.** And the GI50 (U-251)?
**A.** 44.6 µM (inactive)

**Q.** What about the GI50 (MDA-MB-231) of the same compound?
**A.** 32.1 µM (inactive)

**Q.** And the GI50 (HOP-62)?
**A.** 26.5 µM (inactive)

**Q.** And the GI50 (HCT-116)?
**A.** 34.4 µM (inactive)

**Q.** What about the GI50 (SK-MEL-5) of the same compound?
**A.** 12.8 µM (inactive)

**Q.** And the GI50 (HOP-92)?
**A.** 14.7 µM (inactive)

**Q.** And the GI50 (BT-549)?
**A.** 64.3 µM (inactive)

**Q.** And the GI50 (Malme-3M)?
**A.** 1.74 µM (inactive)

**Q.** What about the GI50 (RXF 393) of the same compound?
**A.** 13.5 µM (inactive)

**Q.** And the GI50 (A498)?
**A.** 19.1 µM (inactive)

**Q.** And the GI50 (T47D)?
**A.** 15.6 µM (inactive)

**Q.** And the GI50 (OVCAR-5)?
**A.** 97.7 µM (inactive)

**Q.** And the GI50 (MDA-N)?
**A.** 19.9 µM (inactive)

**Q.** What about the GI50 (SF-539) of the same compound?
**A.** 30.6 µM (inactive)

**Q.** What about the GI50 (HL-60) of the same compound?
**A.** 18.2 µM (inactive)

**Q.** And the GI50 (A549)?
**A.** 25.8 µM (inactive)

**Q.** And the GI50 (LOX IMVI)?
**A.** 49.4 µM (inactive)

**Q.** And the GI50 (MCF7)?
**A.** 20.1 µM (inactive)

**Q.** What about the GI50 (MDA-MB-435) of the same compound?
**A.** 19.4 µM (inactive)

**Q.** And the GI50 (SF-295)?
**A.** 32.6 µM (inactive)

**Q.** What about the GI50 (OVCAR-3) of the same compound?
**A.** 29.1 µM (inactive)

**Q.** And the GI50 (IGROV-1)?
**A.** 23.3 µM (inactive)

**Q.** What about the GI50 (SF-268) of the same compound?
**A.** 23.2 µM (inactive)

**Q.** And the GI50 (SK-OV-3)?
**A.** 28.6 µM (inactive)

**Q.** And the GI50 (NCI-H522)?
**A.** 6.17 µM (inactive)

**Q.** What about the GI50 (CCRF-CEM) of the same compound?
**A.** 24.3 µM (inactive)

**Q.** And the GI50 (SNB-75)?
**A.** 21.5 µM (inactive)

**Q.** And the GI50 (SNB-19)?
**A.** 71.6 µM (inactive)

**Q.** And the GI50 (UACC-257)?
**A.** 11.6 µM (inactive)

**Q.** And the GI50 (RPMI-8226)?
**A.** 33 µM (inactive)

**Q.** And the GI50 (ACHN)?
**A.** 8.99 µM (inactive)

**Q.** What about the GI50 (NCI-H460) of the same compound?
**A.** 20.3 µM (inactive)

**Q.** And the GI50 (NCI/ADR-RES)?
**A.** 30 µM (inactive)
